According to patent US7354938B2, “Pyrazole compounds and uses related thereto” (Amgen Inc., priority 2004, dated 2008):

Molecular target: T1, human HSD1 (recombinant HSD1) (Homo sapiens, UniProt P28845)
T1 construct: made in house
Experiment: In vitro HSD1 activity inhibitory action (SPA, conversion of cortisone to cortisol)
Format: biochemical
Conditions: recombinant human HSD1 expressed in baculo-virus system, 16 nM 3H cortisone, 500 μM NADPH, room temperature, 90 min
Experimental: In Vitro HSD1 (Hydroxysteroid Dehydrogenase 1) Activity Inhibitory Action
The HSD1 inhibitory activity was examined by quantitative determination by an SPA (scintillation proximity assay) system of the suppressive action on the conversion from cortisone to cortisol using human HSD1 (hereinafter recombinant HSD1) expressed using a baculo-virus system as an enzyme source. For the reaction, a reagent was added to a 96 well plate (96 well Opti-plates™-96 (Packard)) to the following final concentration and a volume of 100 μl was reacted at room temperature for 90 min. The reaction solution used was 0.1 μg/mL recombinant HSD1,500 μM NADPH, 16 nM ^3H cortisone (Amersham Biosciences, 1.78 Tbq/mol) dissolved in 0.1% BSA (Sigma)-containing PBS and the test drug was 2 μl of a compound solution (dissolved in DMSO). After 90 min, the reaction was stopped by adding PBS (40 μl, containing 0.1% BSA (Sigma)) containing 0.08 μg of anti-cortisol mouse monoclonal antibody (East Coast Biologics), 365 μg SPA PVT mouse antibody-binding beads (Amersham Biosciences) and 175 μM carbenoxolone (Sigma) to the reaction solution. After the completion of the reaction, the plate was incubated overnight at room temperature and the radioactivity was measured by Topcount (Packard). For control, the value (0% inhibition) of the well containing 2 μl of DMSO instead of the test drug was used, and for positive control, the value (100% inhibition) of the well containing carbenoxolone instead of the test drug at the final concentration of 50 μM was used. The inhibition (%) of the test drug was calculated by ((value of control−value of test drug)/(value of control−value of positive control))×100 (%). The IC50 value was analyzed using a computer-based curve fitting soft.

T1 sequence (P28845 whole entry): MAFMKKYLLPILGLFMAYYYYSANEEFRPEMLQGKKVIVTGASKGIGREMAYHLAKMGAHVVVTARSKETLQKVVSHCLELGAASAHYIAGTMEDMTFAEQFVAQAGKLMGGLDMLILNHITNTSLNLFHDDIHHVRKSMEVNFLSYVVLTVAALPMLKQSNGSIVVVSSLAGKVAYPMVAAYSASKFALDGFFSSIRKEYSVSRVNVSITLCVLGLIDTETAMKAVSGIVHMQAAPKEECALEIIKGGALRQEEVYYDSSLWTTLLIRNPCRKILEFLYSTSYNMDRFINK

IC50 | SMILES
< 0.01 µM | Cc1c(-c2ccc(Cl)cc2Cl)n[nH]c1C1(c2ccccc2)CC1 [Ex. 1-1, 3-(2,4-dichlorophenyl)-4-methyl-5-((1-phenylcyclopropane)-1-yl)-pyrazole]
0.01 to 1 µM | Clc1ccc(-c2cc(CCc3ccccc3Cl)n[nH]2)c(Cl)c1 [Ex. 1-2]
< 0.01 µM | Cc1c(CCc2ccccc2Cl)n[nH]c1-c1ccc(Cl)cc1Cl [Ex. 1-3]
0.01 to 1 µM | CCOC(=O)c1c(-c2ccc(Cl)cc2Cl)n[nH]c1C1(c2ccccc2)CC1 [Ex. 1-4]
0.01 to 1 µM | Clc1ccc(-c2cc(C3(c4ccccc4)CC3)[nH]n2)c(Cl)c1 [Ex. 1-5]
0.01 to 1 µM | OCc1c(-c2ccc(Cl)cc2Cl)n[nH]c1Cc1ccc(F)cc1 [Ex. 1-8]
0.01 to 1 µM | Cc1c(-c2ccc(Cl)cc2Cl)n[nH]c1Cc1ccc(F)cc1 [Ex. 1-9]
0.01 to 1 µM | Cc1c(C2CCN(c3c(Cl)cncc3Cl)CC2)n[nH]c1C1(c2ccccc2)CC1 [Ex. 1-10]
< 0.01 µM | Cc1c(C2CCN(c3ncccc3Cl)CC2)n[nH]c1C1(c2ccccc2)CC1 [Ex. 1-11]
< 0.01 µM | CC(C)c1c(-c2ccccc2)n[nH]c1C1(c2ccc(F)cc2)CC1 [Ex. 1-12]
< 0.01 µM | Cc1c(-c2ccccc2)n[nH]c1C1(c2ccc(F)cc2)CC1 [Ex. 1-13]
0.01 to 1 µM | Cc1c(-c2ccc(N3CCOC3=O)cc2Cl)n[nH]c1C1(c2ccccc2)CC1 [Ex. 1-14]
< 0.01 µM | Cc1c(-c2ccccn2)n[nH]c1C1(c2ccc(F)cc2)CC1 [Ex. 1-15]
< 0.01 µM | Cc1c(C2(c3ccc(F)cc3)CC2)n[nH]c1C1(c2ccc(F)cc2)CC1 [Ex. 1-16]
